Common to all, as to format: cell-based, human
The subject of one test is MM96L melanoma cells. As to the kind of experiment: Cell survival assay (clonogenic survival, SRB). The method in brief: (§1)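 Cells (5×10^3/well, RPMI 1640 with 10% FCS) treated 24 h with compound at 0.01-10 μg/mL, then washed and grown 72 h drug-free at 37 °C, 5% CO2. Survival read by SRB staining after methylated-spirit fixation, absorbance 564 nm.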
The subject of test [1] is CI-80-13S ovarian cancer cells. As to the kind of experiment: Cell survival assay (SRB). The settings on record: Table 10, standard deviations in parentheses, read-out: Cell line IC50 (μM) C18013S. Here is the method: (§2) Cell Lines and Culture Medium. All cell lines used in this study have been described previously (Parsons et al., 1986; Todaro et al., 1980; Glenn et al., 2004). All cell lines were cultured in 10% heat-inactivated foetal calf serum (CSL, Australia) in RPMI 1640 medium supplemented with 100 U/mL penicillin, 100 μg/mL streptomycin, and 3 mM HEPES at 5% CO2, 99% humidity at 37° C. Primary human fibroblasts were obtained from neonatal foreskins and cultured in the above medium. Routine mycoplasma tests were performed using Hoechst stain^i and were always negative.
(§3) Cell Survival Assay. Cells were plated into 96-well microtitre plates at 5×10^3 cells/well, and allowed to adhere overnight. Test compounds were added to culture medium at the indicated concentrations, and plates incubated in the above conditions for 24 hours. Following this incubation period, compounds and media were removed, and replaced with fresh culture medium. Cells were then grown for a further 72 hours before assay using sulforhodamine B (SRB; Sigma, St. Louis, Mo.) as previously described. Briefly, the culture medium was removed from the 96-well microtitre plates and the plates washed twice with phosphate buffered saline (PBS), before the cells were fixed with methylated spirits for 15 minutes. The plates were then rinsed with tap water and the fixed cells stained with 50 μL/well of SRB solution (0.4% sulforhodamine B (w/v) in 1% (v/v) acetic acid) over a period of 1 hour. The SRB solution was then removed from the wells and the plates rapidly washed two times with 1% (v/v) acetic acid. Protein bound dye was then solubilised with the addition of 100 μL of 10 mM unbuffered Tris, and incubated for 15 min at 25° C. Plates were then read at 564 nm on a VERSA max tunable microplate reader (Molecular Devices, Sunnyvale, Calif.).
(§4) For comparison their results are also shown for MM96L and NFF cell lines.

In another test the test system is JAM ovarian cancer cells. As to the kind of experiment: Cell survival assay (SRB). Particulars: Table 10, standard deviations in parentheses, read-out: Cell line IC50 (μM) JAM. Here is the method:
as §2, §3, §4

The subject of test [2] is DU145 prostate cancer cells. Description: Cell survival assay (SRB). Particulars: Table 10, standard deviations in parentheses, read-out: Cell line IC50 (μM) DU145. Here is the method:
as §2, §3, §4

The test system of the next test is SkMel28 melanoma cells. As to the kind of experiment: Cell survival assay (SRB). Particulars: Table 10, standard deviations in parentheses, read-out: Cell line IC50 (μM) SkMel. Here is the method: as §2, §3, §4
For a further test, the system named is DO4 melanoma cells. Description: Cell survival assay (SRB). Particulars: Table 10, standard deviations in parentheses, read-out: Cell line IC50 (μM) DO4. Here is the method:
as §2, §3, §4

In test [3] the test system is MCF-7 breast cancer cells. As to the kind of experiment: Cell survival assay (SRB). The settings on record: Table 10, standard deviations in parentheses, read-out: Cell line IC50 (μM) MCF7. Here is the method:
as §2, §3, §4

For test [4], the system named is NFF, neonatal foreskin fibroblasts. As to the kind of experiment: Cell survival assay (clonogenic survival, SRB), normal cells. The essentials: as §1
For another test, the system named is histone deacetylase. Description: Histone hyperacetylation (histone H4, Triton-acetic acid-urea gel) in MM96L cells. The settings on record: (figure legends: 5 μg/mL, 8 hours). Here is the method:
FIG. 1. Acetylation of Histones. […] Lane 1: untreated. Lane 2: compound of example 22 Lane 3: compound of example 40. Lane 4: TSA. Non-acetylated (A), mono-acetylated (B), di-acetylated (C), tri-acetylated (D) and tetra-acetylated (E) histone H4 are indicated.
FIG. 2. Acetylation of histones MM96L cells were treated with 5 μg/ml of various compound for 8 hr, before harvest and analysis of histone H4 acetylation by Triton-acetic acid-urea gel as previously described (Saito et al., 1991; Qiu et al., 1999). Lane 1: untreated: lane 2: Compound of example 73; lane 3: Compound of example 40; lane 4: TSA. Non-acetylated (A), mono-acetylated (B), di-acetylated (C), tri-acetylated (D) and tetra-acetylated (E) histone H4 are indicated.
Histone Hyperacetylation.

The mark [5] stands for this setting: Table 5, 24 hours with compound, further growth, SRB, read-out: IC50 MM96L.
[6] abbreviates: Table 5, Selectivity Index = IC50 (NFF)/IC50 (MM96L).
[7] abbreviates: Table 10, standard deviations in parentheses, read-out: Cell line IC50 (μM) MM96L.
[8] abbreviates: Table 5, 24 hours with compound, further growth, SRB, read-out: IC50 NFF.
The mark [9] stands for this setting: Table 10, standard deviations in parentheses, read-out: Cell line IC50 (μM) NFF.
The mark [10] stands for this setting: Homo sapiens, MM96L, 24 h, Table 6, 24 hours with compound, further growth, SRB, read-out: IC50 (μM) MM96L.
Setting [11] is: Homo sapiens, MM96L, Table 10, standard deviations in parentheses, read-out: Cell line IC50 (μM) MM96L.
The mark [12] stands for this setting: Table 6, IC50 (NFF)/IC50 (MM96L).
The mark [13] stands for this setting: Homo sapiens, Fibroblast, 24 h, Table 6, 24 hours with compound, further growth, SRB, read-out: IC50 (μM) NFF.
[14] abbreviates: Homo sapiens, Fibroblast, Table 10, standard deviations in parentheses, read-out: Cell line IC50 (μM) NFF.

Where two headings read alike, the source gives them in different places. Bounds are passed on as bounds.

`CN(C)c1ccc(C(=O)N[C@@H](CSCCCC(=O)NO)C(=O)NCc2ccccc2)cc1` [Example 22]: the IC50 with MM96L melanoma cells (setting [5]) was determined as 0.14 ± 0.09 µM; in the test with MM96L melanoma cells (setting [7]), 0.14 µM; in test [1] it was 0.7 µM; in the test on JAM ovarian cancer cells it was 1.24 µM; in test [2] it was 0.61 µM; in the test on SkMel28 melanoma cells it was 3 µM. In addition, the IC50 with DO4 melanoma cells was found to be 2 µM; in test [3], 0.59 µM; in [4] (setting [8]), 0.35 ± 0.07 µM; in [4] (setting [9]), 0.35 µM. The compound also showed a Selectivity with MM96L melanoma cells (setting [6]) of 2.5. For the same compound, in the test with histone deacetylase, the “acetylation state of histone H4” value was “hyperacetylation of H4”.

In the case of `O=C(CCCSC[C@H](NC(=O)c1cc2ccccc2[nH]1)C(=O)NCc1ccccc1)NO` [Example 40], the IC50 came to 0.13 ± 0.09 µM in the test with MM96L melanoma cells (setting [5]); 0.13 µM in the test with MM96L melanoma cells (setting [7]); 0.4 µM in [1]; 0.75 µM in the test on JAM ovarian cancer cells; 0.4 µM in [2]; 1.7 µM in the test on SkMel28 melanoma cells. The IC50 in the test with DO4 melanoma cells came out at 1.3 µM; in test [3], 0.84 µM; in test [4] (setting [8]) it was 0.8 ± 0.2 µM; in test [4] (setting [9]), 0.8 µM. This compound also showed a Selectivity in the test with MM96L melanoma cells (setting [6]) of 6.2. The “acetylation state of histone H4” value in the test on histone deacetylase is “hyperacetylation of H4”.

Regarding `O=C(CCCSC[C@H](NC(=O)C(O)(c1ccccc1)c1ccccc1)C(=O)NCc1ccccc1)NO` [Example 44], the IC50 in the test with MM96L melanoma cells (setting [5]) is 1.8 ± 0.2 µM; with MM96L melanoma cells (setting [7]), 0.2 µM; in [1], 0.6 µM; in the test with JAM ovarian cancer cells, 1.8 µM; in test [2], 1.7 µM; with SkMel28 melanoma cells, 2.5 µM. Also, the IC50 was 2.1 µM in the test on DO4 melanoma cells, 0.7 µM in test [3], 9.3 ± 0.7 µM in test [4] (setting [8]) and 0.8 µM in test [4] (setting [9]). In the test with MM96L melanoma cells (setting [6]), this compound returned a Selectivity of 5.2.

Turning to `CN(C)c1ccc(NC(=O)[C@H](CSCCCC(=O)NO)NC(=O)c2ccc(N(C)C)cc2)cc1` [Example 59], the IC50 with MM96L melanoma cells (setting [10]) is 0.1 ± 0.1 µM; with MM96L melanoma cells (setting [11]) it was 0.1 µM; with MM96L melanoma cells (Homo sapiens, MM96L, most preferred compounds, exemplary examples, read-out: potency of IC50 against the MM96 melanoma cells) it was no more than 0.5 µM; in [1] (Homo sapiens, C180-13S) it was 0.39 µM; with JAM ovarian cancer cells (Homo sapiens) it was 0.43 µM; in test [2] (Homo sapiens, DU-145) it was 0.33 µM. The IC50 is 1.09 µM in the test with SkMel28 melanoma cells (Homo sapiens, SK-MEL-28); 1.05 µM with DO4 melanoma cells (Homo sapiens, DO4); 0.39 µM in test [3] (Homo sapiens, MCF7); 0.6 ± 0.1 µM in test [4] (setting [13]); 0.6 µM in test [4] (setting [14]). The Selectivity in the test with MM96L melanoma cells (setting [12]) was 6.0.

Turning to `CN(C)c1ccc(C(=O)N[C@@H](CSCCCC(=O)NO)C(=O)Nc2ccc(-c3ccccc3)cc2)cc1` [Example 61], the IC50 was 0.17 ± 0.05 µM in the test with MM96L melanoma cells (setting [10]); 0.17 µM in the test on MM96L melanoma cells (setting [11]); 0.38 µM in test [1] (Homo sapiens, C180-13S); 0.6 µM with JAM ovarian cancer cells (Homo sapiens); 0.37 µM in [2] (Homo sapiens, DU-145); 1.11 µM in the test with SkMel28 melanoma cells (Homo sapiens, SK-MEL-28). In addition, the IC50 in the test with DO4 melanoma cells (Homo sapiens, DO4) is 0.83 µM; in test [3] (Homo sapiens, MCF7), 0.48 µM; in test [4] (setting [13]) it was 0.32 ± 0.05 µM; in test [4] (setting [14]) it was 0.32 µM. Besides, the Selectivity in the test on MM96L melanoma cells (setting [12]) came out at 1.9.

As for `CN(C)c1ccc(C(=O)N[C@@H](CSCCCC(=O)NO)C(=O)N[C@H]2c3ccccc3C[C@H]2O)cc1` [Example 70], the IC50 in the test on MM96L melanoma cells (Table 6, 24 hours with compound, further growth, SRB, read-out: IC50 (μM) MM96L) is 0.9 ± 0.05 µM; in the test on MM96L melanoma cells (setting [7]), 0.9 µM; in test [1], 2.5 µM; in the test on JAM ovarian cancer cells, 7.22 µM; in [2], 3.76 µM; in the test on SkMel28 melanoma cells it was 6.14 µM. Moreover, the IC50 turned out to be 7.12 µM in the test on DO4 melanoma cells; 3.3 µM in test [3]; 8.2 ± 0.8 µM in [4] (Table 6, 24 hours with compound, further growth, SRB, read-out: IC50 (μM) NFF); 8.2 µM in [4] (setting [9]). This compound also gave a Selectivity in the test with MM96L melanoma cells (setting [12]) of 9.1.

Take `CN(C)c1ccc(C(=O)N[C@@H](CSCCCC(=O)NO)C(=O)Nc2cccnc2)cc1` [Example 78]: the IC50 in the test with MM96L melanoma cells (setting [10]) amounted to 2.1 ± 0.1 µM; with MM96L melanoma cells (setting [11]), 0.51 µM; in test [1] (Homo sapiens, C180-13S), 1.36 µM; in the test with JAM ovarian cancer cells (Homo sapiens), 2.3 µM; in [2] (Homo sapiens, DU-145), 1.06 µM; in the test with SkMel28 melanoma cells (Homo sapiens, SK-MEL-28), 2.33 µM. The half-inhibitory concentration (IC50) was 2.48 µM in the test with DO4 melanoma cells (Homo sapiens, DO4); 0.97 µM in test [3] (Homo sapiens, MCF7); 11 ± 1 µM in [4] (setting [13]); 3.6 µM in test [4] (setting [14]). Also, the Selectivity in the test with MM96L melanoma cells (setting [12]) was determined as 5.6.

One may read the IC50 as the concentration that gives 50% inhibition.

(Values after US20080004290A1, “Anti-Cancer Agents” (THE UNIVERSITY OF QUEENSLAND, priority 2003, published 2008).)
